# Test results taken from ChEMBL document CHEMBL3046747, “Assessment of species specificity of moulting accelerating compounds in Lepidoptera: comparison of activity between Bombyx mori and Spodoptera littoralis by in vitro reporter and in vivo toxicity assays” (Pest Manag Sci, 2010).
# Tests used:
# Ecdysone receptor [1] = target: T1, Ecdysone receptor (Spodoptera littoralis, UniProt E3UJZ5); test: Antagonist activity at ecdysone receptor in Spodoptera littoralis Sl2 cells assessed as tebufenozide-induced effect treated 24 hr before tebufenozide challenge measured after 24 hr by luciferase reporter gene assay; assay type: cell-based
# T1 sequence (E3UJZ5 whole entry): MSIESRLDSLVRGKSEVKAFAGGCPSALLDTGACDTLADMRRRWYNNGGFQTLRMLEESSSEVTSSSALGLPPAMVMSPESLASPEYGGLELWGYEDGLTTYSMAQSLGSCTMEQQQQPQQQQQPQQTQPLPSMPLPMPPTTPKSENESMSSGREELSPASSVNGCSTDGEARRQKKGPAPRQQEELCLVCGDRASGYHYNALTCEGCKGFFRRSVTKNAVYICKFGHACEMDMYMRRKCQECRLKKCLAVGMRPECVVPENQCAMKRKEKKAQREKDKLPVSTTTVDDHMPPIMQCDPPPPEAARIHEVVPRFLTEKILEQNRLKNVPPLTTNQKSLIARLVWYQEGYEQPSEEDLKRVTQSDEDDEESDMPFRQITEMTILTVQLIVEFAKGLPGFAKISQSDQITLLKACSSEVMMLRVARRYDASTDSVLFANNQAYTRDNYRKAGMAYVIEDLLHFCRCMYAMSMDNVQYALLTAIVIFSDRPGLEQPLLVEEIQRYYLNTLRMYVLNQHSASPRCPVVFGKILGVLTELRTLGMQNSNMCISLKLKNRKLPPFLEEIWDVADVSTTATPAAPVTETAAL
# [2] = Ratio of IC50 for ecdysone receptor in Bombyx mori Bm5 cells to LC50 for Bombyx mori Bm5 cells
# [3] = Cytotoxicity against Bombyx mori Bm5 cells assessed as cell viability after 24 hr by MTT assay; assay type: cell-based; details: read-out: pLC50 (converted)
# Ecdysone receptor [4] = target: T2, Ecdysone receptor (Bombyx mori, UniProt P49881); test: Antagonist activity at ecdysone receptor in Bombyx mori Bm5 cells assessed as tebufenozide-induced effect treated 24 hr before tebufenozide challenge measured after 24 hr by luciferase reporter gene assay; assay type: cell-based
# T2 sequence (P49881 whole entry): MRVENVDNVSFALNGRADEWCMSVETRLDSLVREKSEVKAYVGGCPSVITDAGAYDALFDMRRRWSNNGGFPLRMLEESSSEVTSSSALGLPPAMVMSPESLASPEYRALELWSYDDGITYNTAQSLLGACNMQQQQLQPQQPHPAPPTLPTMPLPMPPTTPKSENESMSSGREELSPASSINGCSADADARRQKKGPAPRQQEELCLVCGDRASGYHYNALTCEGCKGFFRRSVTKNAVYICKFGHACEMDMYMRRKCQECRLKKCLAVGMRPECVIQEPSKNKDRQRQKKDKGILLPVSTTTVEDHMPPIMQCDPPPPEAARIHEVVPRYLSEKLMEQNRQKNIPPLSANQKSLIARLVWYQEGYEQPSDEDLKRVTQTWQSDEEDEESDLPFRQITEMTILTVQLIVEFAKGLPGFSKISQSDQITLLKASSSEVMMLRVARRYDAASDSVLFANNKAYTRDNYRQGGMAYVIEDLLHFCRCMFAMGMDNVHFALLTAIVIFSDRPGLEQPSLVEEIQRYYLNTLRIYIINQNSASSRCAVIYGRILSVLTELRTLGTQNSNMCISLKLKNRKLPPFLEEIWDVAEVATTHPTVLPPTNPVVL
# Spodoptera littoralis [5] = test: Cytotoxicity against Spodoptera littoralis Sl2 cells assessed as cell viability after 24 hr by MTT assay; details: read-out: pLC50 (converted)
# [6] = Ratio of IC50 for ecdysone receptor in Spodoptera littoralis Sl2 cells to LC50 for Spodoptera littoralis Sl2 cells
# [7] = target: T3, Ecdysone receptor (Spodoptera littoralis) (UniProt E3UJZ5); test: Agonist activity at ecdysone receptor in Spodoptera littoralis Sl2 cells after 24 hr by luciferase reporter gene assay relative to tebufenozide; assay type: cell-based
# T3 sequence (whole entry): T1 sequence (E3UJZ5 whole entry)
# Ecdysone receptor [8] = target: T1, Ecdysone receptor; test: Agonist activity at ecdysone receptor in Spodoptera littoralis Sl2 cells after 24 hr by luciferase reporter gene assay; assay type: cell-based
# [9] = target: T4, Ecdysone receptor (Bombyx mori) (UniProt P49881); test: Agonist activity at ecdysone receptor in Bombyx mori Bm5 cells after 24 hr by luciferase reporter gene assay relative to tebufenozide; assay type: cell-based
# T4 sequence (whole entry): T2 sequence (P49881 whole entry)
# Ecdysone receptor [10] = target: T2, Ecdysone receptor; test: Agonist activity at ecdysone receptor in Bombyx mori Bm5 cells after 24 hr by luciferase reporter gene assay; assay type: cell-based
# [11] = Ratio of LD50 for Spodoptera littoralis to LD50 for Bombyx mori; assay type: functional
# Spodoptera littoralis [12] = test: Larvicidal activity against Spodoptera littoralis assessed as mortality applied topically after 1 week; assay type: functional
# Bombyx mori = test: Larvicidal activity against Bombyx mori assessed as mortality applied topically after 1 week; assay type: functional
# [13] = Selectivity ratio of EC50 for ecdysone receptor in Bombyx mori Bm5 cells to EC50 for ecdysone receptor in Spodoptera littoralis Sl2 cells; assay type: cell-based
SMILES,IC50 (Ecdysone receptor [1]) [µM],Ratio [2],CC50 at 24 h [3] [µM],IC50 (Ecdysone receptor [4]) [µM],CC50 at 24 h (Spodoptera littoralis [5]) [µM],Ratio [6],Efficacy [7] [%],EC50 (Ecdysone receptor [8]; read-out: EC50) [µM],Efficacy [9] [%],EC50 (Ecdysone receptor [10]; read-out: EC50) [µM],Ratio [11],pLD50 (Spodoptera littoralis [12]),pLD50 (Bombyx mori),Ratio EC50 [13],EC50 (Ecdysone receptor [8]; read-out: pEC50 (converted)) [µM],EC50 (Ecdysone receptor [10]; read-out: pEC50 (converted)) [µM]
Cc1ccc(NC2CC(C)N(C(=O)c3ccc(C(C)(C)C)cc3)c3ccc(C)cc32)cc1 (stereo unspecified),> 25.1,2.09,11.5,24,> 25.1,,,,,,,,,,,
Cc1ccc(NC2CC(C)N(C(=O)c3ccc(C)cc3)c3ccc(C)cc32)cc1 (stereo unspecified),74.1,0.89,30.2,26.9,> 501,<0.15,,,,,,,,,,
CC1CC(Nc2ccc(F)cc2)c2cc(F)ccc2N1C(=O)c1ccc(Cl)cc1 (stereo unspecified),,,162,,> 501,,64,60,59,55,,,,,,
CC1CCc2ccccc2N1C(=O)c1ccc(Cl)cc1 (stereo unspecified),55,0.69,69.2,47.9,102,0.53,,,,,,,,,,
CCc1ccc(C(=O)NC2(C(=O)c3cc(C)cc(C)c3)CCCCC2)cc1,,,,,,,101,,112,,> 23.4,<4.44,6.08,0.65,0.12,0.0776
CC(C)(C)N(NC(=O)c1cccc(Cl)c1)C(=O)c1ccccc1Cl,,,,,,,75,,119,,> 2.4,<5.44,5.82,0.18,1.7,0.309
COc1cccc(C(=O)NN(C(=O)c2cc(C)cc(C)c2)C(C)(C)C)c1C [METHOXYFENOZIDE],,,,,,,100,,103,,3.16,7.68,8.18,0.56,0.00603,0.00339
CC(C)(C)N(NC(=O)c1ccccc1)C(=O)c1ccccc1 [RH-5849],,,,,,,91,,87,,17.8,4.75,5.55,0.34,1.29,0.437
Cc1cc(C)cc(C(=O)N(NC(=O)c2ccc(C(C)(C)C)cc2)C(C)(C)C)c1,,,,,,,69,,88,,> 295,4.72,7.19,1.01,0.00708,0.00708
Cc1cc(C)cc(C(=O)N(NC(=O)c2cccc(C)c2C)C(C)(C)C)c1,,,,,,,63,,82,,7.08,6.44,7.29,0.68,0.0162,0.011
Cc1ccc(NC2CC(C)N(C(=O)c3ccc(Cl)cc3)c3ccc(C)cc32)cc1 (stereo unspecified),79.4,0.43,34.7,14.8,> 501,<0.16,,,,,,,,,,
Cc1cc(C)c(Cl)c(C(=O)N(NC(=O)c2ccc3c(c2C)CCCO3)C(C)(C)C)c1,,,,,,,114,,95,,> 4.47,<4.36,5.01,0.49,0.0676,0.0331
CC(C)(C)N(NC(=O)c1ccc(Br)cc1)C(=O)c1ccccc1Cl,,,,,,,77,,106,,> 7.59,<5.39,6.27,0.34,0.437,0.151
CCc1ccc(C(=O)NN(C(=O)c2cc(C)cc(C)c2)C(C)(C)C)cc1 [TEBUFENOZIDE],,,,,,,100,,100,,10.5,6.58,7.6,0.51,0.00219,0.00112
Cc1ccc(N(C(=O)c2ccc(Cl)cc2)C2CC(C)N(C(=O)c3ccc(Cl)cc3)c3ccc(C)cc32)cc1 (stereo unspecified),12.9,1.91,7.08,13.5,> 15.1,<0.85,,,,,,,,,,
CCc1ccc(C(=O)NN(C(=O)c2cc(C)cc(C)c2Cl)C(C)(C)C)cc1,,,,,,,83,,85,,> 3.39,<4.41,4.94,0.34,0.339,0.115
CC(C)(C)N(NC(=O)c1ccccc1F)C(=O)c1ccccc1Cl,,,,,,,105,,93,,> 468,<4.7,7.37,0.5,0.288,0.145
Cc1ccc(NC2CCN(C(=O)c3ccc(Cl)cc3)c3ccccc32)cc1 (stereo unspecified),,0.42,21.4,8.91,427,0.12,,,,,,,,,,
Cc1ccc(NC2CCN(C(=O)c3ccc(Cl)cc3)CC2)cc1,15.1,,< 5.01,2.24,27.5,0.55,,,,,,,,,,
COc1ccc(C(=O)NN(C(=O)c2ccccc2Cl)C(C)(C)C)cc1,,,,,,,85,,126,,> 12.3,<5.44,6.53,0.4,0.339,0.135
